Entries after “also recorded” stand apart in the source; their conditions may differ.

In assay [1] the target is T1, human RAD51 (Homo sapiens, UniProt Q06609).
T1 sequence (Q06609 1-339): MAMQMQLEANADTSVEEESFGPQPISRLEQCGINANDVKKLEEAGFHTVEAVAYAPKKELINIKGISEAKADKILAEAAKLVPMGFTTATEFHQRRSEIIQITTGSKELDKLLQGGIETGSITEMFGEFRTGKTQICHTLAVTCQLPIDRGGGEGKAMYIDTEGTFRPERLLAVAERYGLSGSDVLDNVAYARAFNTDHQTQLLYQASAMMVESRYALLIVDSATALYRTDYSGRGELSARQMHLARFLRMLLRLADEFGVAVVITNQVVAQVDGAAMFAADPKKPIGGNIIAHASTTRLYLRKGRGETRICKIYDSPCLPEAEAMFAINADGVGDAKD
The assay is described as follows: Strand invasion (D-loop) assay. To be noted: 0.8 μM RAD51; buffer that does not support joint molecule formation (1 mM ATP, 1 mM MgOAc). In kind it is biochemical. The procedure:
FIGS. 6A-6B. Schematic of the strand invasion (D-loop) assay.
(§1) Conditions with scRAD51 additionally contained 110 nM scRAD54.

Assay [2] concerns the target T2, yeast DMC1 (Saccharomyces cerevisiae, UniProt P25453).
T2 sequence (P25453 1-334): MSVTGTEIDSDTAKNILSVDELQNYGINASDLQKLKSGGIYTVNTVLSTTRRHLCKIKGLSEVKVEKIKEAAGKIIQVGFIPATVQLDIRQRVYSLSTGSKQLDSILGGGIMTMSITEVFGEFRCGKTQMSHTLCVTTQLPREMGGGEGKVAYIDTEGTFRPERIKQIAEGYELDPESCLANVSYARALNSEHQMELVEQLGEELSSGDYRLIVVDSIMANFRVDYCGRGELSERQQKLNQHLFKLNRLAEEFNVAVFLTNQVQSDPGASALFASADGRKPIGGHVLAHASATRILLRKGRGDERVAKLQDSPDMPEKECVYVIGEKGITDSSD
The assay is described as follows: Strand invasion (D-loop) assay with DMC1 in place of RAD51. In kind it is biochemical. The procedure: as §1

In assay [3] the test system is chicken lymphocyte DT40 cells. The assay is described as follows: Clonogenic survival study in the presence of radiation. It counts as cell-based. The settings on record: compound added about 30 minutes after irradiation, 24 hours. The procedure:
Single chicken lymphocyte DT40 cells were irradiated. Thirty minutes later, they were incubated with compound 45488 (also called compound 5253121) for 24 hours. Single cells were then plated (100, 1000, or 10000) in 6-well plates in media. Because DT40 cells are not adherent to plastic surfaces, the media included methylcellulose to provide viscosity. After 7-10 days, the resulting colonies are counted, and survival is reported as a colony-forming ability relative to un-irradiated cells.

Assay [4] deals with T1, human RAD51. The assay can be described thus: Fluorescence polarization assay for RAD51 filament formation on fluorescein-labeled oligonucleotide. It counts as biochemical. Here is the method: FIGS. 2A-2B. FIG. 2A, top: Schematic of protein filament formation monitored in vitro using a fluorescence polarization assay. FIG. 2A, bottom: Purified RAD51 protein (wild type or mutant F86E) were serially diluted. RecA (New England Biolabs) was used as a positive control. Proteins were added to a 5′terminal fluorescein conjugated oligonucleotide (45 bases of dT) at a 1 μM nucleotide concentration. The mixture was incubated at 37° C. for 30 minutes in 384-well plates containing a reaction buffer (30 mM Tris/acetate pH 7.5, 10 mM Mg^2+/acetate, 2 mM ATP, 0.1 mM DTT, 0.5 μM BSA). Fluorescence polarization was measured with a plate reader (filters: excitation=485 nm, emission=510 nm). FIG. 2B, top: Varying concentrations of 5′terminal fluorescein conjugated oligonucleotide were used to determine the threshold RAD51 concentration.
The assay of Example 2 was used to serve in the screen of a small-molecule chemical library for compounds that stimulate RAD51 filament formation. […] Multiple positive (+RAD51) and negative […] controls were tested, and these readings were tested using the statistical method described by Zhang et al. (1999), which evaluates the suitability of an HT assay. The assay as described has a Z-factor of 0.82, validating it as an excellent assay for HT screening.
The assay of Example 2 was used to serve in the screen of a small-molecule chemical library for compounds that inhibit RAD51 filament formation. […] FP readings were very reproducible with reaction volumes in the 10-100 μl range, and 100 μl was typically used. […] The assay was optimized such that the positive control FP reading was ˜50% of maximal reaction saturation; the RAD51 protein concentration was 0.3 uM and the fluorescein-labeled DNA is at 0.1 uM (nucleotide concentration). […] The average FP readings for positive control and negative control are 344 mP (SD=13.4) and 27 mP (SD=5.3), respectively. These readings were tested using the statistical method described by Zhang et al, which evaluates the suitability of an HT assay (Zhang et al., 1999). […]
(In fluorescence polarisation assays a small probe gives low polarisation when free and higher when bound to something large.)

For assay [5], the target named is RecA protein (the bacterial ortholog of RAD51) (Escherichia coli, UniProt P0A7G6). To be noted: RecA in place of RAD51.
Description: RAD51 filament formation can also be studied using oligonucleotides that are end-labeled with a fluorescent tag. Binding of proteins to this substrate DNA can be detected as an increase in anisotropy (or polarization) of the fluorescent tag. […] In this example, this method was modified so that very small sample volumes (30 μl) can be monitored in a high-throughput scale, using 384-well plates and a fluorescent plate reader. […] By varying the amount of substrate DNA, a threshold of approximately 0.1 μM RAD51 protein is required for in vitro filament formation in this system.
A naïve 10,000 compound library of small molecules (Chembridge DIVERSet collection) was screened. A ‘mixed compound’ screening strategy was used, wherein each reaction tested a mixture of 8 compounds.
Assay [6] deals with bacterial RecA (Escherichia coli, UniProt P0A7G6).
bacterial RecA, sequence (P0A7G6 whole entry): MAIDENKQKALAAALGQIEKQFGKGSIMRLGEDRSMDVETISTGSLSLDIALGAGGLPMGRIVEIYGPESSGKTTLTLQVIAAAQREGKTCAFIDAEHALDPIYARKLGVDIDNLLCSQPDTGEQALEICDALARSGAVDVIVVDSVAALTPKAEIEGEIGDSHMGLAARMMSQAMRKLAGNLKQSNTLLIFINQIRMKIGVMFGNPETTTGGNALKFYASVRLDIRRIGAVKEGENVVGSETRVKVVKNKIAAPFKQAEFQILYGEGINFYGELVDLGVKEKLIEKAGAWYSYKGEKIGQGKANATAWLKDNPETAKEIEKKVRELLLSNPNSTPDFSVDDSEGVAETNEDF
Description: Briefly, 15 μl reaction volumes included a DNA strand exchange protein (0.8 μM) that was pre-incubated for 5 min at 37° C. with 1 μM (nucleotide concentration) ^32P-labeled oligonucleotide in a reaction buffer containing 20 mM Hepes (pH 7.5), 1 mM DTT, 2 mM nucleotide cofactor, and 1 mM MgCl2, and various concentrations of RS-1. For experimental buffer conditions that included calcium, 1 mM CaCl2 was present in addition to (in the case of hRAD51) or in the place of (in the case of RecA and scRAD51) the 1 mM MgCl2. Conditions with scRAD51 additionally contained 110 nM scRAD54. Following this initial binding reaction, 10 μl of 19.75 μM (base pair concentration) supercoiled homolog-containing target plasmid DNA (pRS306) was next added along with sufficient magnesium acetate to give a final concentration of 10 mM. DNA substrates were allowed form a homology dependent association (or ‘D-loop’), and reactions were stopped with SDS and proteinase K. The resulting DNA was separated on 1.3% agarose gels, transferred onto nitrocellulose membranes, analyzed by phosphorimaging, and quantified with ImageJ 1.37v software (NIH).
These experiments were repeated using other recombinase proteins (bacterial RecA and yeast DMC1) in the place of human RAD51.

RecA protein (the bacterial ortholog of RAD51), sequence (P0A7G6 2-353): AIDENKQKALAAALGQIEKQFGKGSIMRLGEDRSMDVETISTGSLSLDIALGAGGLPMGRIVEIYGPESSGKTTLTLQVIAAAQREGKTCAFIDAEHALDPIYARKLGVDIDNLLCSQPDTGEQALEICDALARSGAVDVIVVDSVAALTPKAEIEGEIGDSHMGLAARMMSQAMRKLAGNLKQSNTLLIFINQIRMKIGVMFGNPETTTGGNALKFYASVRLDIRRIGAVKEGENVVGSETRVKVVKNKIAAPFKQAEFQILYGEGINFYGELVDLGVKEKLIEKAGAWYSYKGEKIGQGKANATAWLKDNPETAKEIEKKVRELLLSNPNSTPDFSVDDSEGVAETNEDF

Regarding `O=C(Nc1ccc(Br)cc1)c1ccc(Br)c(S(=O)(=O)NCc2ccccc2)c1` [compound 45488], in assay [1], the “joint molecule formation / DNA strand invasion activity of RAD51” value is reported as “capable of stimulating DNA strand invasion activity of RAD51; also recorded: concentration dependent increase in joint molecule formation”. Moreover, the “effect on strand invasion by DMC1” value in assay [2] was “some inhibition”. Besides, the “protection of cells from radiation (colony-forming ability)” value in assay [3] is on record as “protects the cells from radiation damage”. For the same compound, the “stability of RAD51 filaments in high salt” value in assay [4] (buffers containing high salt concentrations) is recorded as “protects these filaments from buffers containing high salt concentrations; also recorded: stabilizes RAD51 filaments in the presence of high salt concentrations”. In addition, the figures for the “effect on RAD51 filament formation” value in assay [4] (compound at 20 μM) and in assay [4] (further study) were “enhances filament formation” and “enhances RAD51 filament formation”, respectively. Further, in assay [5], the “stimulation of RecA filament formation” value is reported as “no stimulation of filament formation”. Also, the “effect on strand invasion by RecA” value in assay [6] is reported as “no effect”.

These data come from US9198914B2, “Methods and compositions for modulating RAD51 and homologous recombination” (The University of Chicago, priority 2007, dated 2015).
